In ChEMBL document CHEMBL1201862, “PubChem BioAssay data set” (2004):
The source made the active and inactive calls.

Experiments:
Hexokinase-1 = target: T1, Hexokinase-1 (Homo sapiens, UniProt P19367); assay: hexokinase 1 activators, dose response, selectivity assay for HKDC1 activator project, biochemical (AID 504762); type: functional
T1 sequence (P19367 whole entry): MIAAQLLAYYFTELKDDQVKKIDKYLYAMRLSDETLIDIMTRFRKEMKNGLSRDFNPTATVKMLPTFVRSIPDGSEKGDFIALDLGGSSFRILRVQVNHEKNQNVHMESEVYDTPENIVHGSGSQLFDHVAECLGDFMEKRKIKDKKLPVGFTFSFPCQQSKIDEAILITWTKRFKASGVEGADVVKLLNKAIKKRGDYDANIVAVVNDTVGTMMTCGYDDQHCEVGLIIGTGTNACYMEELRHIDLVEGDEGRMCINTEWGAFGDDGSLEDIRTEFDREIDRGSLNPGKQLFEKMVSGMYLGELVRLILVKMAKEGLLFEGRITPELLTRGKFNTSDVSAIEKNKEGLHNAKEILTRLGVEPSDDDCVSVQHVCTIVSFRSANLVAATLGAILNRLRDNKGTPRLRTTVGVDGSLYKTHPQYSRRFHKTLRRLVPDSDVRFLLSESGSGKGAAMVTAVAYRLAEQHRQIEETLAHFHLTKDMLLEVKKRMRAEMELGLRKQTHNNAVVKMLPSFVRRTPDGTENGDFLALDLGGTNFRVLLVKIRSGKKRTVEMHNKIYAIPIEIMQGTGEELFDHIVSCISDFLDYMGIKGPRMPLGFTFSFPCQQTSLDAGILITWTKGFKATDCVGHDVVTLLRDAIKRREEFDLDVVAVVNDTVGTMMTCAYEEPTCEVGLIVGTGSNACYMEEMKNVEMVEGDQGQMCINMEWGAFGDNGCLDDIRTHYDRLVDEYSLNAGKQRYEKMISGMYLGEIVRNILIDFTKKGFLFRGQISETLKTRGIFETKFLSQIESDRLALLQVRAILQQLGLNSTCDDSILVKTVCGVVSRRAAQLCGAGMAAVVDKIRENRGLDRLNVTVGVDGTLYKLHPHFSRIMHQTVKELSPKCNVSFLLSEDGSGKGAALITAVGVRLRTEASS

[1] = target: Histone-lysine N-methyltransferase NSD2 (Homo sapiens, UniProt O96028); type: biochemical
Hexokinase HKDC1 = target: T2, Hexokinase HKDC1 (Homo sapiens, UniProt Q2TB90); assay: HKDC1 hexokinase activators, dose response, biochemical, W721R variant (AID 504730); type: functional
T2 sequence (Q2TB90 whole entry): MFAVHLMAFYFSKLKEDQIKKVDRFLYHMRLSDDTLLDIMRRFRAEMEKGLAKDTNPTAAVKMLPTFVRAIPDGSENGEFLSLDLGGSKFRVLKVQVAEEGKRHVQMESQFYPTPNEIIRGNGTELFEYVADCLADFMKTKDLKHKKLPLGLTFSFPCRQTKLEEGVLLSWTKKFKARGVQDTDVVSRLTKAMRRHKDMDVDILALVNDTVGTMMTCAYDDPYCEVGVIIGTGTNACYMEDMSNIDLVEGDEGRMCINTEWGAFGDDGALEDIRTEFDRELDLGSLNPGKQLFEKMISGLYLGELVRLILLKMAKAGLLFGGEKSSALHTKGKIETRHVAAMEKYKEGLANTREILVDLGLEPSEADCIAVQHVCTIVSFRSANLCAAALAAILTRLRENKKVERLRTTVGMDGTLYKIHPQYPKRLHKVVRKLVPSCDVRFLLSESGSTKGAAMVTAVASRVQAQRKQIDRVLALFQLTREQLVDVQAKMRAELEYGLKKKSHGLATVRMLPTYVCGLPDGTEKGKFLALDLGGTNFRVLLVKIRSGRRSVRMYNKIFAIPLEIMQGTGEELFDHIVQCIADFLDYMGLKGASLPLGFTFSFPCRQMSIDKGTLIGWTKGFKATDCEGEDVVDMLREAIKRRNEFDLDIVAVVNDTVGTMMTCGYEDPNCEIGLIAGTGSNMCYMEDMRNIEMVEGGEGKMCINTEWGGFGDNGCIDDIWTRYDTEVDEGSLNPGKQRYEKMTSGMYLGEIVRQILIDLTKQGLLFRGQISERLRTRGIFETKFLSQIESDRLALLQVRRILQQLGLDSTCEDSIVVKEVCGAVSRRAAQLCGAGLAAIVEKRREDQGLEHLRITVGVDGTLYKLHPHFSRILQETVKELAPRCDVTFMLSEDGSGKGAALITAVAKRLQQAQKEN

[2] = target: Photoreceptor-specific nuclear receptor (Homo sapiens, UniProt Q9Y5X4); type: functional, cell-based;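 also: CHO-S cells with Gal4-NCOR and VP16-NR2E3 two-hybrid luciferase reporter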
Protein S100-A4 = Protein S100-A4 (Homo sapiens, UniProt P26447); assay: S100A4-myosin IIA binding inhibitor potency, dose response, biochemical, fluorescence polarization, cherry-picked hits (AID 687001); type: functional
[3] = target: Heat shock protein HSP 90-alpha (Homo sapiens, UniProt P07900); type: functional, organism-based
Keap1/Nrf2 = Keap1/Nrf2 (Homo sapiens, UniProt Q14145); assay: Keap1-Nrf2 protein-protein interaction inhibitors, dose response, biochemical, fluorescence polarization, cherry-picked samples (AID 588683)
Paired box protein Pax-8 = Paired box protein Pax-8 (Homo sapiens, UniProt Q06710); assay: inhibitors of PAX8-driven TPO luciferase reporter, dose response, RMG-I cells, cherry-pick (AID 687027); type: functional, cell-based;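 also: luciferase reporter driven by Pax8 target thyroperoxidase promoter measured by SteadyGlo luminescence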
[4] = Luminescence Cell-Based Dose Response HTS to Identify Inhibitors of 5'UTR Stem-Loop Driven Prion Protein mRNA Translation in H4 Neuroglioblastoma Cells. [Related pubchem assays: 1827 (Project Summary), 1813 (Primary HTS)]; type: functional
[5] = insulin promoter down-regulators in MIN6 cells, imaging, high-content screening, mouse beta cells (AID 1628); type: functional
BJ [6] = assay: cytotoxicity toward BJ-TERT fibroblasts, dose response, cell-based, RAS-independent, luminescence (AID 1933); type: functional; settings: Homo sapiens
[7] = NIH-3T3 fibroblast cytotoxicity, dose response, cytotoxicity control, cell-based, fluorescence, Alamar Blue, secondary assay (AID 2327); type: functional;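 also: NIH-3T3 mouse fibroblasts cultured with fluconazole at 8 µg/mL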
[8] = inhibitors of SNCA 5'UTR-driven reporter translation, confirmation, H4 neuroglioma cells, luminescence (AID 1988); type: functional, cell-based
[9] = cytotoxicity toward DRD oncogenic fibroblasts, dose response, cell-based, non-viral oncogenic, luminescence (AID 1934); type: functional; settings: Homo sapiens
[10] = Vero E6 cell cytotoxicity, dose response, cytotoxicity control for non-replicating M. tuberculosis project, secondary assay (AID 492998); type: functional, VeroE6; settings: Vero C1008
BJ [11] = assay: cells; type: functional, cell-based; settings: Homo sapiens
[12] = cytotoxicity in MIN6 insulinoma cells, dose response, cytotoxicity control, cell-based, mouse insulinoma (AID 2122); type: functional;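 also: confirmatory high-throughput counterscreen run to flag cytotoxic compounds; mouse MIN-6 beta cells carrying an insulin promoter eGFP reporter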
[13] = target: T3, Intestinal-type alkaline phosphatase (Homo sapiens, UniProt P09923); assay: human IAP activators, dose response, biochemical, luminescent, uHTS hits, set 2 (AID 488817); type: functional;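 also: potency of activators that raise enzyme activity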
Nonstructural protein 1 = Nonstructural protein 1 (Influenza A virus, UniProt Q194T2); type: functional, Influenza A virus (A/California/07/2009(H1N1))
[14] = inhibitors of firefly luciferase expression or activity, dose response, H4 neuroglioma cells, luminescence (AID 1990); type: functional, cell-based
[15] = THP-1 cell cytotoxicity, dose response, cytotoxicity control for non-replicating M. tuberculosis project (AID 489025); type: functional
[16] = cytotoxicity in HPDE-C7 cells, cell-based, fluorescence, HTS (AID 430); type: functional; settings: Homo sapiens
[17] = Luminescence-based dose response cell-based high throughput screening assay for cytotoxic compounds using the IEC-6 intestinal epithelial cell line. [Related pubchem assays: 1858 (Summary AID.), 1825 (Counterscreen.), 1907 (Confirmation screen.)]; type: functional
[18] = cytotoxicity in KRAS-transformed pancreatic duct cells, primary screen, cell-based, fluorescence, HTS (AID 431); type: functional; settings: Homo sapiens;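 also: cell line used: HPDE-C7K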
[19] = cytotoxicity in HEK-293T cells, dose response, cytotoxicity control for TCR NF-kB inhibitor project, luminescence, T-cell screen hits (AID 489026); type: functional, cell-based;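 also: cells exposed to compound about 14 hours before the viability readout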
[20] = C. albicans growth with fluconazole, confirmation, fluorescence, retest (AID 2467); type: functional, cell-based
[21] = target: T4, Alkaline phosphatase, tissue-nonspecific isozyme (Homo sapiens, UniProt P05186); assay: TNAP enzyme activators, dose response, selectivity assay for human IAP activator project, biochemical, TNAP isozyme, human IAP uHTS hits (AID 488886); type: functional;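 also: potency of compounds raising TNAP activity as a selectivity check on IAP activators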
T4 sequence (P05186 whole entry): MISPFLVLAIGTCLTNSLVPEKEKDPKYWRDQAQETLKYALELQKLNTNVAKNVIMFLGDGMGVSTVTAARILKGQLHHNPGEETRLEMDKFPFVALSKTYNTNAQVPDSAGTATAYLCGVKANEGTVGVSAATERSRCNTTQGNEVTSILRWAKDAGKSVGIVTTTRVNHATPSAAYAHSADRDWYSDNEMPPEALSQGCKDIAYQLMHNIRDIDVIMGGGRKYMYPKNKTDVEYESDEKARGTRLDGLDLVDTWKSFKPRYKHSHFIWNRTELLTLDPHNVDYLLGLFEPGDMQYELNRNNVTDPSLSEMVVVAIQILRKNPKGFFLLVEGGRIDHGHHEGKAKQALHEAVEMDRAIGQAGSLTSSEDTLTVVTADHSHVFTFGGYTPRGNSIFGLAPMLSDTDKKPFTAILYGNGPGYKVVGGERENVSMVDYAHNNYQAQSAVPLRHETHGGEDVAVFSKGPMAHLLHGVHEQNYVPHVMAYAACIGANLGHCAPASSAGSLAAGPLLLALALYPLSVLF

[22] = target: T3, Intestinal-type alkaline phosphatase; assay: human intestinal alkaline phosphatase activators, dose response, biochemical, luminescence, uHTS hits (AID 463120); type: functional
BJ [23] = assay: cytotoxicity toward BJ-TERT-LT-ST fibroblasts, dose response, cell-based, RAS-independent, luminescence (AID 1935); type: functional; settings: Homo sapiens;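 also: BJ fibroblasts immortalized with TERT plus LT and ST oncogenes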
[24] = HepG2 cell cytotoxicity, dose response, cytotoxicity control for non-replicating M. tuberculosis project (AID 489018); type: functional; settings: Mycobacterium tuberculosis
INS1 = assay: beta cell apoptosis inhibitors, cytokine rescue, dose response, luminescence, retest (AID 449756); type: functional, cell-based; settings: Rattus norvegicus;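 also: cell death triggered by IL-1 beta plus TNF-alpha plus IFN-gamma mixture; protective hits raise ATP signal compared with cytokine alone wells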
[25] = target: Intestinal-type alkaline phosphatase (Mus musculus, UniProt P24822); assay: PubChem AID 488874; type: functional
HEK293 = assay: inhibitors of LMP1-driven NF-kB reporter, dose response, cell-based, HEK293, luciferase, cherry-pick (AID 588343); type: functional; settings: Homo sapiens
cells = type: functional

T3 sequence (P09923 whole entry): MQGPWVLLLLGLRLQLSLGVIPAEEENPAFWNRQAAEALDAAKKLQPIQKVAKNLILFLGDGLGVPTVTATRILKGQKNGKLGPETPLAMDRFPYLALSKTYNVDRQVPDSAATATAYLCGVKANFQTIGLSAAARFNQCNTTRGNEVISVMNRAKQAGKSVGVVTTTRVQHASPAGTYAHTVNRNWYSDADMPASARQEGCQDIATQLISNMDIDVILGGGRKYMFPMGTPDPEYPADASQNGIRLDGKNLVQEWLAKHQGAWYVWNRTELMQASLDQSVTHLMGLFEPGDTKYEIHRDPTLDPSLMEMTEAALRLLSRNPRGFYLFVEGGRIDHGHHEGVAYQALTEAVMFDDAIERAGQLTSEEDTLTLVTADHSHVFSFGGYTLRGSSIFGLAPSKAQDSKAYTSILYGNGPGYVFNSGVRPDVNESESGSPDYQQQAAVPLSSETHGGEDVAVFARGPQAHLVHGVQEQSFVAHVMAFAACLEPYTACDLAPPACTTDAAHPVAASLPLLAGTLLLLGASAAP
Intestinal-type alkaline phosphatase (Mus musculus, UniProt P24822), sequence (P24822 whole entry): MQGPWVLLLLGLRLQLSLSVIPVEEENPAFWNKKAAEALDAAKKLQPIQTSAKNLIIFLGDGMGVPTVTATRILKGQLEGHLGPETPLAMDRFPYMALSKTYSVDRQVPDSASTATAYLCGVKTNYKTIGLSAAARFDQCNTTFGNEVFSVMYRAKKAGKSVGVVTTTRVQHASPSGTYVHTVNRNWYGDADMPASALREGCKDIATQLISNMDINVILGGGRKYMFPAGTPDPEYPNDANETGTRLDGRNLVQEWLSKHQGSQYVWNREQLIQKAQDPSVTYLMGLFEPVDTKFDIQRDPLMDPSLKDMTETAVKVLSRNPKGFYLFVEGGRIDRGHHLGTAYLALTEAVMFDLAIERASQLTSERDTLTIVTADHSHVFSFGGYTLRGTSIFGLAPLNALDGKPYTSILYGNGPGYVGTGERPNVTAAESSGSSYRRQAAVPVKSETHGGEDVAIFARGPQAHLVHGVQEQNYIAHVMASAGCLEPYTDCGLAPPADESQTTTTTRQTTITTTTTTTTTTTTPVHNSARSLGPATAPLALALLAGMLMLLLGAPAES
Paired box protein Pax-8, sequence (Q06710 whole entry): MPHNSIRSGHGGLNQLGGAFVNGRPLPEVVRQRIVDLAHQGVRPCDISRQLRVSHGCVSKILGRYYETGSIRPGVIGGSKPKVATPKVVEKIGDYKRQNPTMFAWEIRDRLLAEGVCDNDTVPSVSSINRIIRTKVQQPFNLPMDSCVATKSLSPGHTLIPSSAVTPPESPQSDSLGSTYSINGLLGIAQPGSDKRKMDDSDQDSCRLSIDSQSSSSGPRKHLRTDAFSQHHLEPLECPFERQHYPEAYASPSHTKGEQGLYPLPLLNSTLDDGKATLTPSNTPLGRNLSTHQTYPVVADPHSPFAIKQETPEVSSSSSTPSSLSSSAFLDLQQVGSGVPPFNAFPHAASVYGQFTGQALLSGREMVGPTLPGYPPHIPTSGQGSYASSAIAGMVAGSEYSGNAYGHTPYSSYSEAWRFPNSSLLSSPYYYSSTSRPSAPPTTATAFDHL
Photoreceptor-specific nuclear receptor, sequence (Q9Y5X4 whole entry, the tested form may be a part): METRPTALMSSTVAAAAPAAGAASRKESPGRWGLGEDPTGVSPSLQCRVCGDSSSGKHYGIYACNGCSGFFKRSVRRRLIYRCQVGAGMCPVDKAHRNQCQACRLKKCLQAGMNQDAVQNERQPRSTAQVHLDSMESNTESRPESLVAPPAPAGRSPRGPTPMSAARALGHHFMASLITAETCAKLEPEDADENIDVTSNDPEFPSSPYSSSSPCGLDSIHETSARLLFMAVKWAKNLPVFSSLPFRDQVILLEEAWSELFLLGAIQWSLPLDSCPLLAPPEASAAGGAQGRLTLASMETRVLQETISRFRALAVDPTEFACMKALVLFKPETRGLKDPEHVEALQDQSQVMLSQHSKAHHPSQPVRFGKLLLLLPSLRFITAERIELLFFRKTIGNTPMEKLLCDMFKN
Keap1/Nrf2, sequence (Q16236 whole entry): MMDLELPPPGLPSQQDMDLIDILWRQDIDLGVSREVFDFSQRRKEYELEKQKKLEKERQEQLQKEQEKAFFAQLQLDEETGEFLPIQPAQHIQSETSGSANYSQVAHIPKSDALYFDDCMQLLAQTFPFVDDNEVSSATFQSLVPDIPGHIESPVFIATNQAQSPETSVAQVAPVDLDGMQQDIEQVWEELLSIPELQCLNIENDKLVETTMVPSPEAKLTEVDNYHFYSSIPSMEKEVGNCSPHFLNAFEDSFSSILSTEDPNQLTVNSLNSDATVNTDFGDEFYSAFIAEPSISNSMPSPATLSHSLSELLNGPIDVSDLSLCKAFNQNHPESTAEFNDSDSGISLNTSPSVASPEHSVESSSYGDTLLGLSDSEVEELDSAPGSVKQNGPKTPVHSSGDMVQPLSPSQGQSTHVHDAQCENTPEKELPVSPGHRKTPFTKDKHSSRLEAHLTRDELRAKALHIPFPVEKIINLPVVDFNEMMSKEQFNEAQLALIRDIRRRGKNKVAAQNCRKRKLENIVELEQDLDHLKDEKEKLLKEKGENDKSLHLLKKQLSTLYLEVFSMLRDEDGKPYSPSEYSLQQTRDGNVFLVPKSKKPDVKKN
Keap1/Nrf2, sequence (Q14145 whole entry): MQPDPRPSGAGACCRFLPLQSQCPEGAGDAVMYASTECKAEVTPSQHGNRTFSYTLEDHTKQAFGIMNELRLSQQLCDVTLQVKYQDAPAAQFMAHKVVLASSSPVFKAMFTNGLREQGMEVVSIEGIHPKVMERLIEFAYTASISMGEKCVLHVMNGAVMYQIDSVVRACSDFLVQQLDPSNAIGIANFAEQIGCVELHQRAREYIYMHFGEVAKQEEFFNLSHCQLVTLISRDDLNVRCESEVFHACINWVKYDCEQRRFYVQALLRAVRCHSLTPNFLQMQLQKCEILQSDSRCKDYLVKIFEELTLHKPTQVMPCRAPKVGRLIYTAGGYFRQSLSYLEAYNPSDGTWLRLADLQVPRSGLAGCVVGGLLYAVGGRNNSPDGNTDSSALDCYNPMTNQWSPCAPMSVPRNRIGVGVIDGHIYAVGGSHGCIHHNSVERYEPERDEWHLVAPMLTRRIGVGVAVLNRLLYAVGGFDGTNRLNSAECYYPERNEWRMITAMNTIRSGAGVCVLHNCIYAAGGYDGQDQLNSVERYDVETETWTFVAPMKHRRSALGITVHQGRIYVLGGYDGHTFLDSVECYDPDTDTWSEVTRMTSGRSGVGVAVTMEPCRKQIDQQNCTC
Protein S100-A4, sequence (P26447 whole entry): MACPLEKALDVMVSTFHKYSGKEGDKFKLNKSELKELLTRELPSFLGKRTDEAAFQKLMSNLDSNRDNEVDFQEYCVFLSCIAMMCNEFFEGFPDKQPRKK
Nonstructural protein 1, sequence (Q194T2 whole entry): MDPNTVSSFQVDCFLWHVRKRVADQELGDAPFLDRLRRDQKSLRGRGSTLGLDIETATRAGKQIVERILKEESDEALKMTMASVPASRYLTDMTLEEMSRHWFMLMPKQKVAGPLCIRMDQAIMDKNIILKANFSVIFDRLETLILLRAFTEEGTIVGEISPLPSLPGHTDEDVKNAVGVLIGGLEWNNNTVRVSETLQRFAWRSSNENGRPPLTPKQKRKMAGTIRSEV
Histone-lysine N-methyltransferase NSD2, sequence (O96028 whole entry): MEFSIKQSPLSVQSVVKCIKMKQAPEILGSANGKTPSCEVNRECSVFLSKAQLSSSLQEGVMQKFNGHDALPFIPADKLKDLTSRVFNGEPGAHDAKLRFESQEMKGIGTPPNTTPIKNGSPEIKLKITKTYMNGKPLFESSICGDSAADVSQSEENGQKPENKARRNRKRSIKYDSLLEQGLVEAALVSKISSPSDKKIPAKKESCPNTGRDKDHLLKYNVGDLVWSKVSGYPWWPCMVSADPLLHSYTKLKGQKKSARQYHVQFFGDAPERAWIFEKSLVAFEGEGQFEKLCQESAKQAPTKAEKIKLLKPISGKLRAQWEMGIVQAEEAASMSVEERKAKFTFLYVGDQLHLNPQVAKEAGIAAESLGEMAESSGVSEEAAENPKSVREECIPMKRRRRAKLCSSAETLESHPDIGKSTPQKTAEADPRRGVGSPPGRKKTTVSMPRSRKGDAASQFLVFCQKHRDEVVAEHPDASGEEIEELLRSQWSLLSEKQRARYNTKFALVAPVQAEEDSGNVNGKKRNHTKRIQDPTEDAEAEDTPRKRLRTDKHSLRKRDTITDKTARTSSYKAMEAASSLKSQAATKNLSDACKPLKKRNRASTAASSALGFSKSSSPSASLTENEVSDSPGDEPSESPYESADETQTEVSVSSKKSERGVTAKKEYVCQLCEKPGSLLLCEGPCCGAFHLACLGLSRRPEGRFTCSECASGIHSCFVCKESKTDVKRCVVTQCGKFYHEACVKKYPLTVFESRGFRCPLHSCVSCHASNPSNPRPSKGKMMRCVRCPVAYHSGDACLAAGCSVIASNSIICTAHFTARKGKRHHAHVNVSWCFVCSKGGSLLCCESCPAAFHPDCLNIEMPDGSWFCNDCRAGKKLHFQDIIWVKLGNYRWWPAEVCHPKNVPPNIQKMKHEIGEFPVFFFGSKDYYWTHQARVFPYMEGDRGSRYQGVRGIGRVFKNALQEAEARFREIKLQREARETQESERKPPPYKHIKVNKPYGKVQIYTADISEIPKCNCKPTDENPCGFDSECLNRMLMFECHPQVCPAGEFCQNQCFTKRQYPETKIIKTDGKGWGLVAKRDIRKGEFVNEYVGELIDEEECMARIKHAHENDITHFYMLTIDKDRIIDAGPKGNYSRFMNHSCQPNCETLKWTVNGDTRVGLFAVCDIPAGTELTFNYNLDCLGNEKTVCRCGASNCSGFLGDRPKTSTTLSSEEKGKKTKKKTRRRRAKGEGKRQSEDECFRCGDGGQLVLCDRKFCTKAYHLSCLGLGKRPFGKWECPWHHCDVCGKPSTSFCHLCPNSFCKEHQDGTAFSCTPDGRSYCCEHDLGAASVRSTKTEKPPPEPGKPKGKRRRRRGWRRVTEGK

CC(=O)Oc1cccc2c1C(=O)C1CC=CC(OC(C)=O)C1C2=O (stereo not given)
active: AC50 [1] 10.4 µM
inactive: EC50 (Hexokinase-1) 34.1 µM | EC50 (Hexokinase HKDC1) 51.6 µM

COc1cccc2c1C(=O)c1c(O)c3c(c(O)c1C2=O)CC(O)(C(C)=O)CC3OC1CC(N(C)C)C(O)C(C)O1 (stereo not given)
inactive: AC50 (Keap1/Nrf2) > 52 µM
active: IC50 [2] 3.82 µM | AC50 (Protein S100-A4) 0.304 µM | AC50 [3] 0.807 µM | AC50 (Paired box protein Pax-8) 1.52 µM

c1ccc(-c2cccc(-c3ccccn3)n2)nc1 [TERPYRIDINE]
inactive: IC50 [19] > 80 µM | IC50 [25] > 100 µM
active: EC50 [4] < 0.1 µM | IC50 [5] 0.504 µM | EC50 (BJ [6]) 11.2 µM | EC50 [7] 1.32 µM | EC50 [8] < 0.1 µM | AC50 [3] 1.35 µM | CC50 [10] 1.02 µM | EC50 (BJ [11]) 4.87 µM | IC50 [12] 0.716 µM | EC50 [13] 25.3 µM | IC50 (Nonstructural protein 1) 1.84 µM | EC50 [14] < 0.1 µM | CC50 [15] 0.21 µM | EC50 [16] 4.14 µM | IC50 [17] 0.483 µM | EC50 [18] 2.54 µM | EC50 [20] 0.349 µM | EC50 [21] 27.5 µM | EC50 [22] 16.8 µM | CC50 [24] > 20 µM | AC50 (INS1) < 0.195 µM | AC50 (HEK293) 2.11 µM | IC50 (cells) 44.9 µM
inconclusive: EC50 [9] 17.1 µM | EC50 (BJ [23]) 4.32 µM
